The source of these data is ChEMBL document CHEMBL5143603, “Discovery of novel 2,8-diazaspiro[4.5]decan-1-one derivatives as potent RIPK1 kinase inhibitors” (Bioorg Med Chem, 2022).

For assay [1], the system named is U-937. The assay is described as follows: Anti-necroptotic activity in human U-937 cells assessed as decrease in phosphorylation of MLKL level preincubated with PMA and LPS followed by compound addition and measured after 9 hrs by western blot analysis. The format is functional, cell-based. The conditions noted are these: DDE = dose-dependent effect. (In western blotting, separated proteins are transferred to a membrane and probed.)

Assay [2] has as its system U-937. The assay is described as follows: Anti-necroptotic activity in human U-937 cells assessed as inhibition of LPS/Z-VAD-fmk (LSZ)-induced necroptosis preincubated with PMA followed by compound addition and measured after 9 hrs by CCK8 assay. The format is functional, cell-based. To be noted: DDE = dose-dependent effect.
The target in assay [3] is T1, Receptor-interacting serine/threonine-protein kinase 1 (Homo sapiens, UniProt Q13546).
T1 sequence (Q13546 whole entry): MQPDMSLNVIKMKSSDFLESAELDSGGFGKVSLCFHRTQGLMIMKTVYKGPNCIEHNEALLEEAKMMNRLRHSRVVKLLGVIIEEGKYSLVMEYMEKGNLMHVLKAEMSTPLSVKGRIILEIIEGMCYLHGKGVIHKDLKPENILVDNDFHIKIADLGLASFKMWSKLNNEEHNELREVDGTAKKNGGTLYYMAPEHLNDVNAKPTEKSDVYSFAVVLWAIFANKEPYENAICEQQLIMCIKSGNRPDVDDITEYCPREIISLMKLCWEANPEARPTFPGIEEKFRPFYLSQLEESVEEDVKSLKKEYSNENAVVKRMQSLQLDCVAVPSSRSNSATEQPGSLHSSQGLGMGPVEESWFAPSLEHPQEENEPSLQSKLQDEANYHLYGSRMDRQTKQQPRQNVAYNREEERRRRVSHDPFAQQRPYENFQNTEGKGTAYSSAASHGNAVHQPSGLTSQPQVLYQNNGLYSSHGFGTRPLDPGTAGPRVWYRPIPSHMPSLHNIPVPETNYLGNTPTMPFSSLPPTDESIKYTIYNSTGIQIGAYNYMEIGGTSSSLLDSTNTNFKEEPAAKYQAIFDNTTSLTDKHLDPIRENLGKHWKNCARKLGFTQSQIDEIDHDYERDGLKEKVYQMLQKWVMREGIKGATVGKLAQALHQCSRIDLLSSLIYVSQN
The assay is described as follows: Inhibition of human RIPK1 incubated for 40 min in presence of ATP by ADP-Glo luminescence kinase assay. Background: ADP-Glo first removes unused ATP, then detects ADP through luciferase.

The pIC50 is the IC50 on a negative log10 scale, so that one unit is a factor of ten.

Structures are written as SMILES. pIC50: −log10 of the molar value.

For the compound `Cn1ccc2ccc(C(=O)N3CCC4(CC3)CCN(Cc3cc(F)ccc3F)C4=O)cc21`, the Activity result in the assay on U-937 [1] and in the assay with U-937 [2] was “Dde” each time. Turning to `CCC(C)(C)C(=O)N(O)Cc1ccccc1`, the pIC50 in assay [3] was 6.53. The same measure, in the same setting: in the case of `O=C(c1ccccc1)N1CCC2(CC1)CN(Cc1ccccc1)C2=O` it was 6.00; in that of `CN1C(=O)C(Cc2c[nH]c3ccccc23)NC1=S` (stereo not given) [NECROSTATIN], 5.94.
